Values of other authors in publication PMC8823334 (ACS chemical neuroscience, 2021).

Assays:
PAR4 [1] = molecular target: T1, PAR4 (Homo sapiens, UniProt Q96RI0)
T1 sequence (Q96RI0 18-385): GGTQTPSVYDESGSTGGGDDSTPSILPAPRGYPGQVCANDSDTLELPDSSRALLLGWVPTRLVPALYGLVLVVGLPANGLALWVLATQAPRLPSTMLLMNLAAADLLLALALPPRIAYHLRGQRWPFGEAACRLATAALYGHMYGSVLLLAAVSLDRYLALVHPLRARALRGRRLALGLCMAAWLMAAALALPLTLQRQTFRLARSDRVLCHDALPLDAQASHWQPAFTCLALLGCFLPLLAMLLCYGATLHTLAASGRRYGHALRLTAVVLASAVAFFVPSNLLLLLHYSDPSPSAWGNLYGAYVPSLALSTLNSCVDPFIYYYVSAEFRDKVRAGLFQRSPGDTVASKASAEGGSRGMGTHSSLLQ

PAR4 [2] = details: mice, suppression of neuroinflammation in astrocytes

Which “mode of PAR4 inhibition” value (PAR4 [1]) does the source give for `COc1cc(OCc2nc(N3CCOCC3)sc2C)c2cc(-c3cn4nc(OC)sc4n3)oc2c1` [Compound 1] here?
Its value is “noncompetitive mode of inhibition”.

What about the “protection against traumatic brain injury” value (PAR4 [2]) of the same compound?
Its value is “protected against traumatic brain injury (TBI) in mice”.
